In general, inhibition refers to the change of the read-out against control, counted positive when it falls. By IC50 is commonly meant the concentration that inhibits the measured activity by half.

The values that follow come from ChEMBL document CHEMBL3632604, “Anti-inflammatory Inositol Derivatives from the Whole Plant of Inula cappa” (J Nat Prod, 2015).

Assay [1] deals with RAW264.7. Description: Antiinflammatory activity in mouse RAW264.7 cells assessed as inhibition of LPS-induced nitric oxide production at 10 uM preincubated for 30 mins followed by LPS stimulation measured after 24 hrs by Griess assay relative to control. Type of assay: functional.
The subject of assay [2] is RAW264.7. Nature of the assay: Antiinflammatory activity in mouse RAW264.7 cells assessed as inhibition of LPS-induced nitric oxide production preincubated for 30 mins followed by LPS stimulation measured after 24 hrs by Griess assay. It is filed as functional, cell-based. A general note: The Griess reaction detects nitrite, a stable product of nitric oxide.

Calls of active or inactive are those of the source. No cut-off for these calls is given here.

In the case of `C/C=C(/C)C(=O)O[C@H]1[C@H](OC(=O)/C(C)=C\C)[C@H](OC(=O)/C(C)=C\C)[C@@H](O)[C@@H](OC(=O)/C(C)=C\C)[C@@H]1O`, the inhibition at 10 µM with RAW264.7 [1] worked out at 59.6%. Besides, the IC50 in the assay on RAW264.7 [2] was found to be 9.9 µM.

As to `C/C=C(/C)C(=O)O[C@H]1[C@@H](O)[C@@H](OC(C)=O)[C@H](OC(=O)/C(C)=C\C)[C@@H](OC(=O)/C(C)=C\C)[C@@H]1O`, the inhibition at 10 µM in the assay on RAW264.7 [1] was 38.3%. Take `C/C=C(/C)C(=O)O[C@@H]1[C@@H](O)[C@H](O)[C@@H](OC(=O)/C(C)=C\C)[C@@H](OC(=O)/C(C)=C\C)[C@H]1O`: the inhibition result in the assay with RAW264.7 [1] is “Active”. Regarding `C/C=C(/C)C(=O)O[C@@H]1[C@H](OC(C)=O)[C@@H](OC(C)=O)[C@@H](OC(=O)/C(C)=C\C)[C@H](O)[C@H]1OC(=O)/C(C)=C\C`, in the assay on RAW264.7 [1], the inhibition result was “Active”. The IC50 in the assay on RAW264.7 [2] worked out at 7.1 µM. As for `C/C=C(/C)C(=O)O[C@@H]1[C@@H](O)[C@H](OC(=O)/C(C)=C\C)[C@@H](OC(=O)/C(C)=C\C)[C@@H](OC(=O)/C(C)=C\C)[C@H]1O`, the inhibition at 10 µM in the assay with RAW264.7 [1] was 47.9%. Further, in the assay with RAW264.7 [2], the concentration for half-maximal inhibition (IC50) was 19 µM. For `C/C=C(/C)C(=O)O[C@@H]1[C@@H](O)[C@@H](OC(=O)/C(C)=C\C)[C@@H](OC(=O)/C(C)=C\C)[C@H](O)[C@H]1OC(=O)/C(C)=C\C` the same measures were 42.1% and 9.8 µM.

Consider `Cc1ccc(-c2cc(C(F)(F)F)nn2-c2ccc(S(N)(=O)=O)cc2)cc1` [CELECOXIB], for which the inhibition at 10 µM with RAW264.7 [1] was found to be 59.2%. Further, in the assay with RAW264.7 [2], the IC50 amounted to 1.6 µM. With `C/C=C(/C)C(=O)O[C@@H]1[C@@H](O)[C@H](OC(=O)/C(C)=C\C)[C@@H](OC(=O)/C(C)=C\C)[C@H](O)[C@@H]1OC(C)=O`, the inhibition result in the assay on RAW264.7 [1] was “Active”. Besides, the IC50 in the assay on RAW264.7 [2] amounted to 9.6 µM. As for `C/C=C(/C)C(=O)O[C@@H]1[C@@H](O)[C@@H](OC(=O)/C=C(\C)CC)[C@H](O)[C@@H](O)[C@@H]1OC(=O)/C(C)=C\C`, the inhibition result in the assay on RAW264.7 [1] was “Active”. Further, in the assay on RAW264.7 [2], the IC50 turned out to be 8.4 µM. Consider `C/C=C(/C)C(=O)O[C@@H]1[C@@H](O)[C@H](OC(=O)/C(C)=C\C)[C@@H](OC(=O)/C(C)=C\C)[C@H](O)[C@@H]1OC(=O)C(C)C`, for which the inhibition at 10 µM with RAW264.7 [1] turned out to be 47.2%. Moreover, the IC50 in the assay with RAW264.7 [2] was 7.6 µM. For `C/C=C(/C)C(=O)O[C@@H]1[C@H](O)[C@@H](OC(C)=O)[C@@H](OC(=O)/C(C)=C\C)[C@H](OC(=O)/C(C)=C\C)[C@H]1O`, in the assay with RAW264.7 [1], the inhibition at 10 µM came to 43.4%. Further, the IC50 in the assay with RAW264.7 [2] turned out to be 11.9 µM. In the case of `C/C=C(/C)C(=O)O[C@H]1[C@H](O)[C@H](O)[C@H](OC(=O)/C=C(\C)CC)[C@@H](O)[C@@H]1OC(=O)/C(C)=C\C`, the inhibition result in the assay on RAW264.7 [1] was “Active”.

For the molecule `C/C=C(/C)C(=O)O[C@@H]1[C@@H](O)[C@H](OC(=O)/C(C)=C\C)[C@H](OC(=O)/C(C)=C\C)[C@@H](O)[C@H]1OC(=O)/C(C)=C\C`, in the assay with RAW264.7 [1], the inhibition at 10 µM turned out to be 39.7%. In the assay on RAW264.7 [2], the IC50 was found to be 7 µM. Taken in the same sequence, the figures for `C/C=C(/C)C(=O)O[C@@H]1[C@@H](O)[C@H](OC(=O)/C(C)=C\C)[C@@H](OC(=O)/C(C)=C\C)[C@H](O)[C@@H]1O` were 37.4% and 23.4 µM. Turning to `C/C=C(/C)C(=O)O[C@H]1[C@H](O)[C@@H](O)[C@H](OC(=O)/C(C)=C\C)[C@H](OC(=O)/C(C)=C\C)[C@H]1O`, the inhibition result with RAW264.7 [1] was “Active”. Moreover, in the assay on RAW264.7 [2], the IC50 was determined as 8.9 µM.
